Experimental data reported in patent US10323078B2, “Isolated peptides and fragments thereof from fibrinogen for use as drugs, particularly in skin inflammatory diseases” (Universite Paris Descartes, priority 2015, dated 2019).

Assays:
[1] = tested on: HaCaT, NHDK, THP-1, MRC5 and HDF; test: H2O2 production by cells stimulated with P. acnes, overall statement for the five cell lines; assay type: cell-based, human; settings: pretreatment of P. acnes strains with small peptide 2.5 to 20 μM; five cell lines and three strains tested
Procedure: FIG. 17: Dose-dependent inhibition of H2O2 production by fibroblast pre-treated by small Fg1-generated peptides and stimulated by P. acnes. MRC5 cell were incubated for 24 h with small peptides Fg1.1 (light gray bar), Fg1.2 (horizontal line bar), Fg1.3 (hatched bar), Fg1.4 (dark gray bar), Fg1.5 (dotted bar) at concentrations ranging from 2.5 to 20 μM. Measurement of hydrogen peroxide production was realized by spectrofluorometry as described in Materials and Methods. Controls experiments were done with unstimulated MRC5 cell (white bar) and MRC5 stimulated with P. acnes (black bar). Data are means±S.D. of three separate experiments. Statistical significance is indicated by * (P<0.05), ** (P<0.01), *** (P<0.001), and **** (P<0.0001), respectively.
(§1) All cells lines (5·10^4 to 10^5 cells/well) were seeded in 96-well plates (Corning Costar, Brumath, France) and treated as previously described. After stimulation, cells were washed three times in PBS and incubated with 100 μl per wells of 5 μM DHE (for determination of O2^●−) or 5 μM H2-DCFDA (for determination of H2O2) for 30 min as described previously and fluorescence intensity was recorded every hour over a period of 5 h. Fluorescence excitation/emission maxima were for DHE: 480/610 nm and for H2-DCFDA: 507/525 nm. At the end of the experiment, the number of adherent cells was evaluated by the crystal violet assay as described below. O2^●−, and H2O2 were assayed by spectrofluorimetry on a Fusion spectrofluorimeter (PackardBell, Paris, France). Levels of ROS were calculated in each sample as follows: reactive oxygen species rate (arbitrary units/min/10^6 cells)=(fluorescence intensity [arbitrary units] at T5h—fluorescence intensity [arbitrary units] at To/300 minutes/number of adherent cells as measured by the crystal violet assay, and were expressed as arbitrary unit (A.U.).
(§2) To assess the efficacy of the small Fg1-related peptide, the production of H2O2 by several cell lines (HaCaT, NHDK, THP-1, MRC5 and HDF) stimulated by three P. acnes strains 6919, RON and PIE was measured, in presence or not with the small peptides. The amount of H2O2 produced is compared to that produced by the stimulated cells with untreated bacteria. Production baseline is obtained by measuring H2O2 on unstimulated cells. The measurement of the production of H2O2 is performed by spectrofluorimetry in the presence of specific fluorochromes directly on the monolayer cell.
(§3) Two sets of experiments have been implemented: • I) The cells are stimulated (18 h at 37° C.) by P. acnes strains previously pretreated with Fg1.1, Fg1.2, Fg1.3, Fg1.4, and Fg1.5 small peptides at the final concentrations ranging from 2.5 to 20 μM for 1 h at 37° C.; • II) The cells are pretreated first with the five small peptides at the final concentrations ranging from 2.5 to 20 μM for 24 h at 37° C. and stimulated (18 h at 37° C.) by P. acnes strains.
FIG. 17 corresponds to the results obtained with the P. acnes RON strain on the fibroblast MRCS cell line and are representative of the results obtained with all P. acnes and cells lines tested (Table 6).

HDF cells = test: H2O2 production by P. acnes-stimulated HDF; assay type: cell-based, human; settings: cells first pretreated, small peptides 2.5 to 20 μM
Procedure: (§4) For experiences of stimulation with P. acnes, cells were incubated with the P. acnes suspension adjusted at the appropriate concentration, pre-treated for 1 h at 37° C. or not with fibrinogen recombinant peptides Fg1 and Fg2 at the concentrations 0.87, 1.75, 3.5 or 7 μM for the desired period of time at 37° C. in 5% CO2.
as §1
(§5) To assess the efficacy of Fg1 recombinant peptide, the production of O2^∘− and H2O2 by HaCaT cells NHDK, THP-1, MRC5 and HDF stimulated by pretreated P. acnes strains 6919, RON and PIE was measured. The amount of ROS produced was compared to that produced by the stimulated cells with untreated bacteria. Production baseline was obtained by measuring ROS on unstimulated cells. The production of IL-1ß, IL-8, IL-12 and TNF-α was also measured in all conditions cited above. The measurement of the production of ROS is performed by spectrofluorimetry in the presence of specific fluorochromes directly on the monolayer cell. Measurement of cytokine production was performed in parallel on the cell culture supernatant.
(§6) Two sets of experiments were implemented: 1) The cells were stimulated (18 h at 37° C.) by P. acnes strains previously pretreated with Fg1 and Fg2 peptides at the final concentrations ranging from 0.87 to 7 μM for 1 h at 37° C.; and 2) The cells were pretreated first with Fg1 and Fg2 peptides at the final concentrations ranging from 0.87 to 7 μM for 24 h at 37° C. and stimulated (18 h at 37° C.) by P. acnes strains.
as §2, §3

ThP1 cells = test: H2O2 production by P. acnes-stimulated ThP1; assay type: cell-based, human; settings: small peptides 2.5 to 20 μM
Procedure: as §4, §1, §5, §6, §2, §3

MRC5 cells = test: H2O2 production by P. acnes-stimulated MRC5; assay type: cell-based, human; settings: small peptides 2.5 to 20 μM
NHDK cells = test: H2O2 production by P. acnes-stimulated NHDK; assay type: cell-based, human; settings: cells first pretreated, small peptides 2.5 to 20 μM
Procedure: as §4, §1, §5, §6, §2, §3

HaCaT cells = test: H2O2 production by P. acnes-stimulated HaCaT (spectrofluorimetry, H2-DCFDA); assay type: cell-based, human; settings: small peptides 2.5 to 20 μM
Procedure: as §4, §1, §5, §6, §2, §3

[2] = tested on: P. acnes surface proteins; test: Binding of biotinylated ECM ligands to immobilized P. acnes surface proteins; set-up: species or system Propionibacterium acnes; settings: 25 μg/ml of protein immobilized per well; various quantity of biotinylated Fg and Collagen I
Procedure: FIG. 2: Binding of P. acnes surface protein to purified human fibrinogen. (A) P. acnes surface proteins (0.8 to 50 μg/ml) were immobilized onto a 96-well polystyrene plate and probed with biotinylated fibrinogen (0.1 μg/ml) for 2 h at room temperature. (B) P. acnes surface proteins (25 μg/ml) were immobilized onto a 96-well polystyrene plate and probed with various concentrations of biotinylated fibrinogen ranging from 0.1 to 16 μg/ml for 2 h at room temperature. Bound biotinylated fibrinogen were detected with HRP-streptavidine as described in Materials and Methods.
To characterize the interaction between P. acnes and ligands, we used biotinylated molecules in quantitative and qualitative assays. In a first set of assays, ECM ligands (fibrinogen, collagens I, IV, VI and VIII) were used as labelled proteins with biotin. In a second set of assays, P. acnes surface proteins (total extract and purified Pfg) were biotinylated. For quantitative analysis, unlabeled protein were diluted into 50 mM carbonate-bicarbonate, pH 9.6 buffer to yield a protein concentration ranging from 0.01 to 50 μg/ml, and then immobilized to 96-well polystyrene plates at 4° C. overnight. […] After washing, bound peroxidase was detected using the chromogenic peroxidase substrate ABTS. […] Binding activity was detected by incubating the membranes with 20 ml of PBT containing biotinylated proteins (0.1 μg/ml) for 2 h at room temperature followed by three washes with PBT. Bound biotinylated proteins were detected by incubating the membrane with peroxidase conjugated to streptavidin (0.5 μg/ml in PBT) for 1 h at room temperature. After washing, bound peroxidase activity was detected using 3,3′-diaminobenzidine in the presence of CoCl2 and H2O2 (Harlow and Lane, 1988).
In order to identify P. acnes surface protein recognized by ECM ligands, we used the most commons ECM proteins recognize by skin related bacteria like collagens and fibrinogen. […] To identify surface proteins, P. acnes total heat protein extracts were electrophoretically separated and detected by silver staining (FIG. 1B). […]

[3] = P. acnes 6919, set I, bacteria first pretreated
[4] = P. acnes 6919, set II, cells first pretreated
[5] = P. acnes PIE, set I, bacteria first pretreated
[6] = P. acnes PIE, set II, cells first pretreated
[7] = P. acnes RON, set I, bacteria first pretreated
[8] = P. acnes RON, set II, cells first pretreated

Row | Substance | Inhibition of H2O2 production [1] | Inhibition of Hydrogen peroxide (H2O2) production (HDF cells; P. acnes 6919, set II) | Inhibition of Hydrogen peroxide (H2O2) production (HDF cells; P. acnes PIE, set II) | Inhibition of Hydrogen peroxide (H2O2) production (HDF cells; P. acnes RON, set II) | Inhibition of Hydrogen peroxide (H2O2) production (ThP1 cells; [3]) | Inhibition of Hydrogen peroxide (H2O2) production (ThP1 cells; [4]) | Inhibition of Hydrogen peroxide (H2O2) production (ThP1 cells; [5]) | Inhibition of Hydrogen peroxide (H2O2) production (ThP1 cells; [6]) | Inhibition of Hydrogen peroxide (H2O2) production (ThP1 cells; [7]) | Inhibition of Hydrogen peroxide (H2O2) production (ThP1 cells; [8]) | Inhibition of Hydrogen peroxide (H2O2) production (MRC5 cells; [3]) | Inhibition of Hydrogen peroxide (H2O2) production (MRC5 cells; [4]) | Inhibition of Hydrogen peroxide (H2O2) production (MRC5 cells; [5]) | Inhibition of Hydrogen peroxide (H2O2) production (MRC5 cells; [6]) | Inhibition of Hydrogen peroxide (H2O2) production (MRC5 cells; [7]) | Inhibition of Hydrogen peroxide (H2O2) production (NHDK cells; P. acnes 6919, set II) | Inhibition of Hydrogen peroxide (H2O2) production (NHDK cells; P. acnes PIE, set II) | Inhibition of Hydrogen peroxide (H2O2) production (NHDK cells; P. acnes RON, set II) | Inhibition of Hydrogen peroxide (H2O2) production (HaCaT cells; [3]) | Inhibition of Hydrogen peroxide (H2O2) production (HaCaT cells; [4]) | also measured
1 | MKRMVSWSFHKLKTMKHLLLLLLCVFLVKSQGVND (fragment Fg1.1) [small peptide generated from Fg1] | inhibits the production of H2O2 in a dose-dependent manner | pos | pos | pos | pos | pos | pos | pos | pos | pos | pos | pos | pos | pos | pos | pos | pos | pos | pos | pos | Inhibition of Hydrogen peroxide (H2O2) production (HaCaT cells; [5]): pos; Inhibition of Hydrogen peroxide (H2O2) production (HaCaT cells; [6]): pos; Inhibition of Hydrogen peroxide (H2O2) production (HaCaT cells; [7]): pos
2 | collagen I: commercial ECM ligand, biotinylated, tested for binding to P. acnes surface proteins [reference compound] |  |  |  |  |  |  |  |  |  |  |  |  |  |  |  |  |  |  |  |  | Binding activity of biotinylated ligand to immobilized P. acnes total surface protein [2]: No binding activity
3 | LLLCVFLVKSQGVNDNEEGFFSARGHRPLD (fragment Fg1.4) [small peptide generated from Fg1, overlapping Fg1.1 and Fg1.2] | inhibits the production of H2O2 in a dose-dependent manner | pos | pos | pos | pos | pos | pos | pos | pos | pos | pos | pos | pos | pos | pos | pos | pos | pos | pos | pos | Inhibition of Hydrogen peroxide (H2O2) production (HaCaT cells; [5]): pos; Inhibition of Hydrogen peroxide (H2O2) production (HaCaT cells; [6]): pos; Inhibition of Hydrogen peroxide (H2O2) production (HaCaT cells; [7]): pos
